Results reported in patent US20240262806A1, “INHIBITORS OF NLRP3” (PTC THERAPEUTICS, INC., priority 2021, published 2024).
pIC50: −log10 of the molar value.

These molecules were tested on NLRP3 inflammasome (assay: IL-1β Secretion Assay (NLRP3-dependent IL-1β secretion in PMA-differentiated THP-1 cells, nigericin activation, HTRF)). Settings: Homo sapiens, THP-1, THP-1 cells, 100 ng/mL PMA 24 h, compound 20 h, 2.5 μM Nigericin 3 h; read-out: IC50 IL-1β Inhibition.
Format: cell-based
Description: Cells were washed 1× with 100 ul PBS and replaced with fresh RPMI+5% FBS. Compounds were serial diluted in DMSO with 3 fold dilution for a total of 7 concentrations.
Compounds, once produced and prepared according to the present invention, can be assessed in variety of assays to characterize their activities. […] IC50 values of IL1β inhibition were calculated from the plot of percentage of inhibition versus the inhibitor concentration by a logistics fit. TABLE I depict examples of compounds according to generic Formulae I. Data which is <1 nM is listed as *****; data 1-10 nM is listed as ****; data 10-100 nM is listed as ***, data 100-300 nM is listed as **, data >300 nM is listed as *.

First: CN1CCC[C@@H](Nc2nnc(-c3ccc(C(F)(F)F)cc3OC3COC3)c3cnccc23)C1 [Compound I-188]
Second: COc1cc(C(F)(F)F)ccc1-c1nnc(N[C@@H]2CCCN(C)C2)c2cnccc12 [Compound I-119]
The pIC50 of the first is lower: 7.00 to 8.00 for the first, 8.00 to 9.00 for the second. The second is the more potent here.

`Cc1cc2c(-c3c(O)cc(Cl)cc3F)nnc(N[C@@H]3CCCN(C)C3)n2n1` [Compound I-455] and `Cc1cc(O)c(-c2nnc(N[C@@H]3CCCN(C)C3)n3nc(C)cc23)c(F)c1` [Compound I-359] cannot be ordered by pIC50: greater than 9.00 for the first, greater than 9.00 for the second.

First: CN1CCC[C@@H](Nc2nnc(-c3c(F)ccc(C4CC4)c3O)c3ccncc23)C1 [Compound I-210]
Second: CN1CCC[C@@H](Nc2nnc(-c3cccc(C4CC4)c3O)c3ccncc23)C1 [Compound I-77]
The pIC50 of the first is lower: 7.00 to 8.00 for the first, greater than 9.00 for the second. The second is the more potent here.

Compared with `COc1cc(C(F)(F)F)ccc1-c1nnc(N[C@@H]2CCCN(CCOC(F)F)C2)c2cnccc12` [Compound I-276], `CN1CCC[C@@H](Nc2nnc(-c3ccc(C(F)(F)F)cc3OC(F)F)c3ccncc23)C1` [Compound I-121] is higher in pIC50: 7.00 to 8.00 for the first, greater than 9.00 for the second. The second is the more potent here.

First: Oc1cc(C(F)(F)F)ccc1-c1nnc(N[C@@H]2CCCOC2)c2cnccc12 [Compound I-309]
Second: CN1CCC[C@@H](Nc2nnc(-c3ccc(C(F)(F)F)cc3O)c3cnccc23)C1 [Compound I-54]
The pIC50 of the first is lower: 8.00 to 9.00 for the first, greater than 9.00 for the second.

Compared with `Cc1ccc(-c2nnc(N[C@@H]3CCCN(C)C3)c3ccncc23)c(O)c1` [Compound I-99], `Cc1ccc(-c2nnc(N[C@@H]3CCCN(C)C3)c3cnccc23)c(C)c1` [Compound I-216] is lower in pIC50: greater than 9.00 for the first, 8.00 to 9.00 for the second.

First: OCCN1CCC[C@@H](Nc2nnc(-c3c(O)cc(C(F)(F)F)cc3F)c3cccn23)C1 [Compound I-415]
Second: CCN1CCC[C@@H](Nc2nnc(-c3c(O)cc(C)cc3F)c3cccn23)C1 [Compound I-498]
The pIC50 of the first is lower: 8.00 to 9.00 for the first, greater than 9.00 for the second. The second is the more potent here.

First: CN1CCC[C@@H](Nc2nnc(-c3ccc(OC(F)(F)F)cc3O)c3ccncc23)C1 [Compound I-102]
Second: CC#Cc1cc(C(F)(F)F)ccc1-c1nnc(N[C@@H]2CCCN(C)C2)c2cnccc12 [Compound I-228, (R)—N-(1-methylpiperidin-3-yl)-1-(2-(prop-1-yn-1-yl)-4-(trifluoromethyl)phenyl)pyrido[3,4-d]pyridazin-4-amine]
The pIC50 of the first is higher: greater than 9.00 for the first, 8.00 to 9.00 for the second. The first is the more potent here.

`CN1CCC[C@@H](Nc2nnc(-c3ccc(C(F)(F)F)cc3O)c3c2CCC3(C)C)C1` [Compound I-46] and `CN1CCC[C@@H](Nc2nnc(-c3ccc(C(F)(F)F)cc3O)c3occc23)C1` [Compound I-85] fall in the same range of pIC50: 7.00 to 8.00 for the first, 7.00 to 8.00 for the second.

`CCN1CCC[C@@H](Nc2nnc(-c3c(O)cc(C)cc3F)c3cncn23)C1` [Compound I-626] and `CCN1CCC[C@@H](Nc2nnc(-c3c(O)cc(C)cc3F)c3cc(C)nn23)C1` [Compound I-515] cannot be ordered by pIC50: greater than 9.00 for the first, greater than 9.00 for the second.

`Cc1cc(F)c(-c2nnc(N[C@@H]3CCCN(CC(C)(C)O)C3)n3cccc23)c(OC(F)F)c1` [Compound I-476] and `Cc1cc(F)c(-c2nnc(N[C@@H]3CCCOC3)n3cccc23)c(OC(F)F)c1` [Compound I-464] fall in the same range of pIC50: 6.52 to 7.00 for the first, 6.52 to 7.00 for the second.

First: Cc1cc(O)c(-c2nnc(N[C@@H]3CCCN(C)C3)c3ccccc23)cc1C [Compound I-41]
Second: Cc1ccc(-c2nnc(N[C@@H]3CCCN(C)C3)c3ccccc23)c(O)c1 [Compound I-25]
The pIC50 of the first is lower: 8.00 to 9.00 for the first, greater than 9.00 for the second.

`CCN1CCC[C@@H](Nc2nnc(-c3ccc(C)cc3O)c3ccnn23)C1` [Compound I-633] and `Oc1cc(Br)ccc1-c1nnc(N[C@@H]2CCCN(CC(F)F)C2)n2nccc12` [Compound I-548] fall in the same range of pIC50: 8.00 to 9.00 for the first, 8.00 to 9.00 for the second.

Compared with `CCN1C[C@H](O)C[C@@H](Nc2nnc(-c3ccc(C(F)(F)F)cc3OC(F)F)c3c(F)ccn23)C1` [Compound I-603], `CCN1C[C@H](F)C[C@@H](Nc2nnc(-c3ccc(OC(F)(F)F)cc3O)c3c(F)ccn23)C1` [Compound I-598] is higher in pIC50: 6.52 to 7.00 for the first, 8.00 to 9.00 for the second.

Compared with `C[C@]1(O)C[C@@H](Nc2nnc(-c3ccc(OC(F)F)cc3OC(F)F)c3cccn23)C1` [Compound I-573], `Cc1cc(F)c(-c2nnc(N[C@H]3C[C@@](C)(O)C3)n3cccc23)c(OC(F)F)c1` [Compound I-465] is lower in pIC50: 7.00 to 8.00 for the first, 6.52 to 7.00 for the second.

First: CCN1CCC[C@@H](Nc2nnc(-c3ccc(C(F)(F)F)cc3O)c3cccn23)C1 [Compound I-479]
Second: Oc1cc(C(F)(F)F)ccc1-c1nnc(N[C@@H]2CCCN(CC(F)(F)F)C2)n2cccc12 [Compound I-483]
The pIC50 of the first is higher: greater than 9.00 for the first, 6.52 to 7.00 for the second. The first is the more potent here.

`CN1CCC[C@@H](Nc2nnc(-c3ccc(-n4nccn4)cc3O)c3ccccc23)C1` [Compound I-10, (R)-2-(4-((1-methylpiperidin-3-yl)amino)phthalazin-1-yl)-5-(2H-1,2,3-triazol-2-yl)phenol] and `CN1CCC[C@@H](Nc2nnc(-c3ccc(F)cc3O)c3ccccc23)C1` [Compound I-16] fall in the same range of pIC50: 8.00 to 9.00 for the first, 8.00 to 9.00 for the second.

First: CN1C[C@@H](O)C[C@@H](Nc2nnc(-c3ccc(C(F)(F)F)cc3O)c3ccccc23)C1 [Compound I-63]
Second: Oc1cc(C(F)(F)F)ccc1-c1nnc(N[C@@H]2CCCNC2)c2ccccc12 [Compound I-20, 2-[4-[[(3R)-3-Piperidyl]amino]phthalazin-1-yl]-5-(trifluoromethyl)phenol]
The pIC50 of the first is lower: 8.00 to 9.00 for the first, greater than 9.00 for the second.

Compared with `CN1CCC[C@@H](Nc2nnc(-c3c(O)cccc3F)c3ccncc23)C1` [Compound I-72], `Cc1cccc(O)c1-c1nnc(N[C@@H]2CCCN(C)C2)c2ccccc12` [Compound I-50] is higher in pIC50: 8.00 to 9.00 for the first, greater than 9.00 for the second.

First: Cc1cncc(-c2nnc(N[C@@H]3CCCN(C)C3)c3ccccc23)c1O [Compound I-159]
Second: CNc1cc(C(F)(F)F)ccc1-c1nnc(N[C@@H]2CCCN(C)C2)c2ccccc12 [Compound I-125]
The pIC50 of the first is lower: 6.52 to 7.00 for the first, 8.00 to 9.00 for the second.

Compared with `COc1cc(O)c(-c2nnc(N[C@H]3C[C@@](C)(O)C3)n3cccc23)c(F)c1` [Compound I-562], `[2H]C([2H])([2H])Oc1cc(O)c(-c2nnc(N[C@@H]3CCCN(C)C3)n3cccc23)c(F)c1` [Compound I-513] is higher in pIC50: 8.00 to 9.00 for the first, greater than 9.00 for the second.

Compared with `Oc1cc(C(F)(F)F)ccc1-c1nnc(N[C@@H]2CCCN(C3CC3)C2)c2cnccc12` [Compound I-215, 2-[4-[[(3R)-1-cyclopropyl-3-piperidyl]amino]pyrido[3,4-d]pyridazin-1-yl]-5-(trifluoromethyl)phenol], `CN1CCC(Nc2nnc(-c3ccc(C(F)(F)F)cc3O)c3ccncc23)CC1` [Compound I-224] is lower in pIC50: greater than 9.00 for the first, 7.00 to 8.00 for the second.

First: CCN1CCC[C@@H](Nc2nnc(-c3ccc(C4CC4)cc3C(F)F)c3cccn23)C1 [Compound I-508]
Second: Cc1ccc(-c2nnc(N[C@@H]3CCCN(C)C3)n3cccc23)c(C(F)F)c1 [Compound I-425, 1-[2-(Difluoromethyl)-4-methyl-phenyl]-N-[(3R)-1-methyl-3-piperidyl]pyrrolo[1,2-d][1,2,4]triazin-4-amine]
The pIC50 of the first is higher: 8.00 to 9.00 for the first, 7.00 to 8.00 for the second.

First: Cc1cc(O)c(-c2nnc(N[C@@H]3CCCOC3)n3cccc23)c(F)c1 [Compound I-421]
Second: Oc1cc(C2CC2)cc(F)c1-c1nnc(N[C@@H]2CCCOC2)n2cccc12 [Compound I-423]
The pIC50 of the first is higher: 8.00 to 9.00 for the first, 7.00 to 8.00 for the second. The first is the more potent here.

`CN(C)C(C)(C)CNc1nnc(-c2ccc(C(F)(F)F)cc2O)c2ccncc12` [Compound I-275] and `CN1CCC(CNc2nnc(-c3ccc(C(F)(F)F)cc3O)c3ccncc23)CC1` [Compound I-302] fall in the same range of pIC50: 8.00 to 9.00 for the first, 8.00 to 9.00 for the second.

Compared with `OCCN1CCC[C@@H](Nc2nnc(-c3ccc(C(F)(F)F)cc3O)c3ccccc23)C1` [Compound I-48, 2-[4-[[(3R)-1-(2-Hydroxyethyl)-3-piperidyl]amino]phthalazin-1-yl]-5-(trifluoromethyl)phenol], `C[C@H]1COCCN1CCNc1nnc(-c2ccc(C(F)(F)F)cc2O)c2ccccc12` [Compound I-148] is lower in pIC50: greater than 9.00 for the first, 7.00 to 8.00 for the second. The first is the more potent here.

`CN1C[C@H](F)C[C@@H](Nc2nnc(-c3ccc(C(F)(F)F)cc3C(F)(F)F)c3cccn23)C1` [Compound I-468] and `O[C@H]1CCC[C@@H](Nc2nnc(-c3ccc(C(F)(F)F)cc3OC(F)F)c3cccn23)C1` [Compound I-361, (1S,3R)-3-[[1-[2-(Difluoromethoxy)-4-(trifluoromethyl)phenyl]pyrrolo[1,2-d][1,2,4]triazin-4-yl]amino]cyclohexanol] fall in the same range of pIC50: 8.00 to 9.00 for the first, 8.00 to 9.00 for the second.

`OCCN1CCC[C@@H](Nc2nnc(-c3ccc(Br)cc3O)c3cccn23)C1` [Compound I-529] and `CN1C[C@H](F)C[C@@H](Nc2nnc(-c3ccc(Br)cc3O)c3ccnn23)C1` [Compound I-546, 5-Bromo-2-(7-(((3R,5R)-5-fluoro-1-methylpiperidin-3-yl)amino)pyrazolo[1,5-d][1,2,4]triazin-4-yl)phenol] fall in the same range of pIC50: 8.00 to 9.00 for the first, 8.00 to 9.00 for the second.

`CC(C)N1CCC[C@@H](Nc2nnc(-c3ccc(C(F)(F)F)cc3OC(F)F)c3cccn23)C1` [Compound I-493] and `CN1CCC[C@@H](Nc2nnc(-c3ccc(C(F)(F)F)cc3OC(F)F)c3cncn23)C1` [Compound I-624] fall in the same range of pIC50: 8.00 to 9.00 for the first, 8.00 to 9.00 for the second.

First: CCN1CCC[C@H]1CNc1nnc(-c2c(O)cc(C)cc2F)c2cccn12 [Compound I-582]
Second: COc1ccc(-c2nnc(N[C@@H]3CCCN(C)C3)n3nc(C4CC4)cc23)c(O)c1 [Compound I-347]
The pIC50 of the first is higher: 8.00 to 9.00 for the first, 7.00 to 8.00 for the second.

Compared with `CN1CCC[C@@H](Nc2nnc(-c3ccc(C(F)(F)F)cc3OC(F)F)c3cc(C4CC4)nn23)C1` [Compound I-346], `Cc1cc2c(N[C@@H]3CCCNC3)nnc(-c3ccc(C(F)(F)F)cc3O)n2n1` [Compound I-332] is lower in pIC50: 8.00 to 9.00 for the first, 7.00 to 8.00 for the second. The first is the more potent here.

For `CN1CC=C[C@@H](Nc2nnc(-c3ccc(C(F)(F)F)cc3O)c3cncn23)C1` [Compound I-460], the pIC50 was 8.00 to 9.00.

Same assay, conditions: THP-1 cells, 100 ng/mL PMA 24 h, compound 20 h, 2.5 μM Nigericin 3 h; read-out: IC50 IL-1β Inhibition

Molecule `Cc1cc2c(-c3ccc(C4CC4)cc3OC(F)(F)F)nnc(N[C@@H]3CCCN(C)C3)n2n1` [Compound I-418] has a pIC50 of 8.00 to 9.00.
